Where “and” joins values, the source holds several entries; their conditions need not be identical. Equal entries are not always repeated.

These results are taken from article PMC4368859 (International Journal of Neuropsychopharmacology, 2014).

Data set [1] has as its system [^3H]-cocaine uptake in hCMEC/D3 cells. The format is cell-based, human.
The conditions of data set [2]: ref Gatley et al., 1994; Chow et al., 2001; cited from earlier work.
For data set [3], the system named is cocaine transporter in hCMEC/D3 cells. The experiment in a line: trans-stimulation of [^3H]-cocaine exit from hCMEC/D3 cells. The following applies: 10 µM unlabeled compound in KH buffer after 5 minutes loading; vs control.
The test system of another data set is OCTs. As to the kind of experiment: MPP+ transport in hCMEC/D3 cells. The format is cell-based, human. As to conditions: TEA 2mM, data not shown.
The nature of data set [4]: pKa and ionised/neutral fraction of the drug as a function of pH. The format is physicochemical.
In another data set the test system is hCMEC/D3 cells. As to the kind of experiment: cocaine uptake in hCMEC/D3 cells. It counts as in vitro ADME, human.
The conditions of data set [5]: in water; ref Lu et al., 2007; cited from earlier work.
The test system of another data set is mouse luminal BBB. As to the kind of experiment: cocaine brain transport by in situ mouse carotid perfusion. It counts as in vivo. As to conditions: for Brain transport (K in): 9nM; for decrease in [^3H]-cocaine transport by unlabeled cocaine: unlabeled cocaine 10mM, mouse BBB.
Where [6] appears, read: in vivo, concentrations less than K m.

Turning to `CN1[C@H]2CC[C@@H]1[C@@H](C(=O)O)[C@@H](OC(=O)c1ccccc1)C2` [Benzoylecgonine], in data set [1], the “Relative uptake of [^3H]-cocaine” value is 104.1±3.0% and 94.2±14.9% and 72.0±11.4 %. Also, the brain uptake entry in data set [2] is “no significant brain uptake”. Besides, the “trans-stimulation of [^3H]-cocaine exit (trans-efflux zero)” value (from here on “trans-stimulation of [^3H]-cocaine exit”) in data set [3] is “lack of a trans-stimulation effect”.

In the case of `COc1ccc2c3c1O[C@H]1[C@@H](O)C=C[C@H]4[C@@H](C2)N(C)CC[C@@]341` [Codeine], the “Relative uptake of [^3H]-cocaine” value in data set [1] came out at 63.4±5.0 %.

On to `CCCC(C(=O)c1ccc2c(c1)OCO2)N1CCCC1` (stereo not drawn) [MDPV, 3,4-methylenedioxypyrovalerone], for which the “Relative uptake of [^3H]-cocaine” value in data set [1] was 18.1±0.4 %. Also, the “trans-stimulation of [^3H]-cocaine exit” value in data set [3] is reported as “strongly stimulated”.

In the case of `C=CCN1CC[C@]23c4c5ccc(O)c4O[C@H]2C(=O)CC[C@@]3(O)[C@H]1C5` [Naloxone], the “Relative uptake of [^3H]-cocaine” value in data set [1] is on record as 28.3±0.9 %.

Turning to `CN1CCC[C@H]1c1cccnc1` [Nicotine], the “trans-stimulation of [^3H]-cocaine exit” value in data set [3] is given as “strongly stimulated”.

As to `CC[N+](CC)(CC)CC` [TEA, tetraethylammonium], the “Relative uptake of [^3H]-cocaine” value in data set [1] was found to be 120.6±9.8%. Further, in the data set with OCTs, the “effect on MPP^+ transport” value was “significantly inhibited”.

As to `COc1ccc(CCN(C)CCCC(C#N)(c2ccc(OC)c(OC)c2)C(C)C)cc1OC` (stereo not drawn) [Verapamil], the “Relative uptake of [^3H]-cocaine” value in data set [1] was 3.7±0.2 %.

On to `COC(=O)[C@H]1[C@@H](OC(=O)c2ccccc2)C[C@@H]2CC[C@H]1N2C` [cocaine, (−)-Cocaine], for which the positively charged fraction in data set [4] (pH 7.4) came to 94%. Besides, the uncharged fraction in data set [4] (pH 7.4) stood at 6%. Besides, the figures for the neutral fraction in data set [4] (pHe 5.40), in data set [4] (pHe 6.40) and in data set [4] (pHe 7.40) were 0.06%, 0.6% and 5.9%, respectively. Moreover, the cationic form in data set [4] (pHe 5.40 or 6.40) is given as > 99.4%. In addition, the “K m of carrier-mediated uptake” value in the data set with hCMEC/D3 cells (KH buffer pH 7.40, 37°C, 5 minutes, 0.05–10mM) was 123 ± 23 µM. For the same molecule, the “increase in uptake after NH4Cl prepulse (acidification)” value in the data set with hCMEC/D3 cells (NH4Cl 30mM prepulse) stood at 1.85 fold. Besides, the “effect of NH4Cl pulse (alkalinization) on uptake” value with hCMEC/D3 cells (NH4Cl 30mM, pHe 7.40) is given as “significantly decreased”. Besides, the “K passive (passive diffusion)” value with hCMEC/D3 cells (pH 7.40) was 1.09 ± 0.09 µL/min/mg; in the data set on mouse luminal BBB (Swiss mice, pHe 7.40), 4.5±1.0 µL/sec/g and ~ 4.5 µL/sec/g. Further, the results for the “increase in uptake vs pHe 5.40” value in the data set on hCMEC/D3 cells (pHe 6.40) and with hCMEC/D3 cells (pHe 7.40) were 2.5 fold and 4.6 fold, respectively. Further, the “transport in NMDG-buffer relative to KH buffer control” value in the data set on hCMEC/D3 cells (sodium replaced, pHe 7.40, 5 minutes, control 100.0±9.0%) was 97.0±9.7%. Also, the “basic pK a” value in data set [5] is on record as 8.6. Moreover, the “Brain transport (K in)” value with mouse luminal BBB (C57Bl/6 mice, 60 seconds, Krebs-carbonate pH 7.40) was determined as 19 ± 2 µL/s/g; with mouse luminal BBB (DBA mice, 60 seconds, Krebs-carbonate pH 7.40), 21 ± 2 µL/s/g; in the data set with mouse luminal BBB (Fvb [Oct1,Oct2(−/−)] mice, 60 seconds) it was 19 ± 2 µL/s/g; in the data set with mouse luminal BBB (Fvb wild-type mice, 60 seconds, Krebs-carbonate pH 7.40) it was 20 ± 2 µL/s/g; with mouse luminal BBB (Swiss mice, 60 seconds, Krebs-carbonate pH 7.40) it was 20 ± 2 µL/s/g. Moreover, in the data set with mouse luminal BBB (Swiss mice, pHe 7.40), the “apparent K m of carrier-mediated brain flux” value is 4500 ± 1800 µM. Moreover, the “V max of carrier-mediated brain flux” value in the data set with mouse luminal BBB (Swiss mice, pHe 7.40, per g of brain) was found to be 127.2 ± 34.5 nmol/s/g. In addition, the total brain extraction result with mouse luminal BBB (compared with the vascular flow marker diazepam) is given as “about 47%”. Also, in the data set with mouse luminal BBB (from Equation 7), the “concentration at which passive diffusion and carrier-mediated flux are equal” value is “around 24 mM”. Further, the “carrier-mediated influx relative to passive diffusion” value with mouse luminal BBB (setting [6]) is reported as 3.4 times. Besides, the carrier-mediated transport rate with mouse luminal BBB (setting [6]) was ~ 15.5 µL/sec/g. Also, the “increase in brain transport vs pHe 5.40” value in the data set with mouse luminal BBB (mice, 60 seconds, pHe 6.40) amounted to 4.7 fold; with mouse luminal BBB (mice, 60 seconds, pHe 7.40), 16.9 fold. Further, the “reduction in brain transport by NH4Cl pulse” value with mouse luminal BBB (mice, NH4Cl 30mM, pHe 7.40, 60 seconds) was found to be 1.8 fold. For the same molecule, in the data set on mouse luminal BBB (mice, carbonate-free HEPES buffer), the “decrease in brain transport with HEPES-buffer vs Krebs-carbonate buffer” value is reported as 1.8 fold. The “increase in K in with mannitol perfusion buffer vs Krebs-carbonate” value in the data set with mouse luminal BBB (mice, sodium-free and chloride-free buffer) is listed as 1.35 fold. Also, the “effect of lithium (Na+-free) buffer on brain transport” value in the data set with mouse luminal BBB (mice, vs regular Krebs-carbonate buffer) is “no significant change”. The “net brain transport rate (K in) under unsaturated conditions” value with mouse luminal BBB (pharmacological concentration range) is given as “about 20 µL/sec/g”. In addition, the “decrease in [^3H]-cocaine transport by unlabeled cocaine” value came to 1.8 fold in the data set on mouse luminal BBB (pHe 5.40), 2.0 fold in the data set on mouse luminal BBB (pHe 6.40) and 1.9 fold in the data set on mouse luminal BBB (pHe 7.40).

Consider Ecgonine, for which the “Relative uptake of [^3H]-cocaine” value in data set [1] is 103.9±8.7% and 93.2±2.5% and 75.3±5.0 %.
